Reference: patent US20130172308A1, “ANTIMICROBIAL AGENTS” (John Grant COLLINS, priority 2011, published 2013)

How the values were obtained:
[1] = system: S. aureus ATCC 25923; assay: MIC determination, broth micro-dilution (CAMHB); assay type: cell-based, Staphylococcus aureus; conditions: Table 4; CAMHB; all ΔΔ- enantiomers
In short: (§1)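 Ruthenium complexes two-fold serially diluted in cation-adjusted Mueller Hinton broth, final range 0.25–128 […], with equal volume of bacterial suspension; duplicate determinations, gentamicin as positive control. Plates incubated 37° C for 24 h; MIC by standard micro-dilution.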

[2] = system: MRSA (a wild clinical strain from the JCU culture collection); assay: MIC determination, broth micro-dilution (CAMHB); assay type: cell-based, methicillin-resistant S. aureus; conditions: Table 4; CAMHB; all ΔΔ- enantiomers
In short: as §1

[3] = system: E. coli ATCC 25922; assay: MIC determination, broth micro-dilution (CAMHB); assay type: cell-based, Escherichia coli; conditions: Table 4; CAMHB; all ΔΔ- enantiomers
In short: as §1

[4] = system: P. aeruginosa ATCC 27853; assay: MIC determination, broth micro-dilution (CAMHB); assay type: cell-based, Pseudomonas aeruginosa; conditions: Table 4; CAMHB; all ΔΔ- enantiomers
In short: as §1

[5] = assay type: physicochemical; conditions: pH 7.4
Procedure: The primary difference between the members of the Rubbn family of complexes is the number of methylene groups in the flexible linking chain. […] Lipophilicity is a significant factor affecting the biological activity of most therapeutic compounds, as it relates to the capacity of the drug to penetrate through the cell membrane. The standard octanol-water partition coefficient (logP) was determined for the Rubbn series (F. Lombardo, B. Faller, M. Shalaeva, I. Tetko and S. Tilton, Methods and Principles in Medicinal Chemistry, 2008, 37, 407) parent model mononuclear species ([Ru(phen)2(Me2bpy)]^2+) and the trinuclear and tetranuclear complexes.
The partition coefficients (logP) were measured using the shake flask technique: each ruthenium complex (at both 0.05 and 0.1 mM) was dissolved in the water phase (0.2 M Na2HPO4—NaH2PO4 buffer, pH=7.4) and an equivalent volume of n-octanol was added.
The two phases were mutually saturated by shaking overnight at ambient temperature and then were allowed to separate on standing. The concentration of the metal complex in each phase was determined spectrophotometrically at l=450 nm.

[6] = system: S. aureus; assay: Minimum Bactericidal Concentration (MBC) assay (CAMHB); assay type: cell-based, Staphylococcus aureus; conditions: Table 4, all ΔΔ- enantiomers
Procedure: (§2) Further MIC assays and Minimum Bactericidal Concentration (MBC) assays were conducted against Gram-positive and Gram-negative bacterial strains using symmetric and non-symmetric, inert and labile complexes.

[7] = system: MRSA; assay: as above; assay type: cell-based, methicillin-resistant S. aureus; conditions: Table 4, all ΔΔ- enantiomers
Procedure: as §2

[8] = system: E. coli; assay: as above; assay type: cell-based, Escherichia coli; conditions: Table 4, all ΔΔ- enantiomers
Procedure: as §2

[9] = system: P. aeruginosa; assay: as above; assay type: cell-based, Pseudomonas aeruginosa; conditions: Table 4, all ΔΔ- enantiomers
Procedure: as §2

[10] = system: Plasmodium falciparum strain D6; assay: [3H]-hypoxanthine growth inhibition assay; assay type: cell-based; conditions: mean (SD), 96 h exposure, chloroquine-sensitive strain; for IC50: read-out: IC50 D6; for IC90: read-out: IC90 D6
Procedure: (§3) The in vitro antimalarial activities of two of the dinuclear ruthenium(II) complexes and chloroquine were assessed by exposing P. falciparum strains to ten serially diluted two-fold concentrations of each compound. Parasite growth was measured by uptake of tritiated [^3H]-hypoxanthine into newly synthesised parasitic DNA.
(§4) The [^3H]-hypoxanthine growth inhibition assay (Desjardins et al., 1979 Antimicrobial Agents Chemother 16: 710-718) was used to evaluate the in vitro antimalarial activity of the compounds. Briefly, synchronised parasite cultures (>90% rings, 6 to 8 h post invasion) in [^3H]-RPMI-LPLF complete medium with 0.5% parasitaemia and 2% haematocrit were exposed to the compounds at ten two-fold concentrations, ranging from 10,000 to 20 nM in 96-well microtitre plates. Chloroquine was used as a reference drug. Uninfected RBCs at 2% haematocrit were used as background controls. For the 96 h exposure period, the plates were incubated in the gas mixture at 37° C. for approximately 48 h, followed by the addition of 0.2 μCi of ^3H-hypoxanthine (GE Healthcare, Amersham) in [^3H]-RPMI-1640-LPLF to each well and a further 48 h of incubation and then frozen at −20° C. Plates were thawed and harvested using Tomtech Harvester 96 Mach III and radioactive counts were obtained using Wallac TriLux 1450 Microbeta Liquid Scintillation Counter (Perkin Elmer, USA). All assays were performed in triplicate for each strain and at least on two separate occasions.
(§5) Tritiated hypoxanthine uptake data were analysed in Graphpad Prism V5.0 software (GraphPad Software Inc. USA). The concentrations of the dinuclear ruthenium(II) complexes and chloroquine were transformed into logarithmic values. After subtracting the background values, the data from drug-treated wells were normalised against drug-free control wells. Non-linear regression analysis was carried out of the compound's concentration versus parasitic hypoxanthine incorporation. The in vitro antimalarial activity of the compound is defined as inhibitory concentrations (IC50) and (IC90) that cause 50% and 90% inhibition of parasite growth as determined by measuring [^3H]-hypoxanthine incorporation.

[11] = system: Plasmodium falciparum strain W2; assay: [3H]-hypoxanthine growth inhibition assay; assay type: cell-based; conditions: mean (SD), 96 h exposure, chloroquine-resistant strain; for IC50: read-out: IC50 W2; for IC90: read-out: IC90 W2
Procedure: as §3, §4, §5

Compound	MIC S. aureus [1]	MIC MRSA [2]	MIC E. coli [3]	MIC P. aeruginosa [4]	logP [5]	MBC S. aureus [6]	MBC MRSA [7]	MBC E. coli [8]	MBC P. aeruginosa [9]	IC50 [10]	IC90 [10]	IC50 [11]	IC90 [11]
Cc1ccnc(-c2cc(CCCCCCCCCCCCCCCCc3ccnc(-c4cc(C)ccn4)c3)ccn2)c1.[Cl-].[Cl-].[Cl-].[Cl-].[Ru+2].[Ru+2].c1cnc2c(c1)ccc1cccnc12.c1cnc2c(c1)ccc1cccnc12.c1cnc2c(c1)ccc1cccnc12.c1cnc2c(c1)ccc1cccnc12 [Rubb16, [{Ru(phen)2}2(μ-bb16)]Cl4]	1	1	2	8	−1.9	1 µg/mL	2 µg/mL	2 µg/mL	8 µg/mL	226 nM	413 nM	289 nM	444 nM
[{Ru(phen)2}2(μ-bb12)] [Rubb12]	1	1	2	16	−2.7	2 µg/mL	2 µg/mL	2 µg/mL	32 µg/mL	733 nM	1250 nM	739 nM	1400 nM
